Experimental data taken from ChEMBL document CHEMBL3120114, “Synthesis and evaluation of new coumarin derivatives as potential atypical antipsychotics” (Eur J Med Chem, 2014).

Key:
D(2) dopamine receptor = D(2) dopamine receptor (Rattus norvegicus, UniProt P61169); experiment: Displacement of [3H]spiperone from dopamine D2 receptor in Sprague-Dawley rat striatum homogenate after 30 mins by liquid scintillation counting
[1] = target: 5-hydroxytryptamine receptor 2A (Rattus norvegicus, UniProt P14842); experiment: Displacement of [3H]Ketanserin from 5HT2A receptor in Sprague-Dawley rat brain cortex homogenate after 30 mins by liquid scintillation counting; assay type: tissue-based
5-hydroxytryptamine receptor 2A, sequence (P14842 whole entry): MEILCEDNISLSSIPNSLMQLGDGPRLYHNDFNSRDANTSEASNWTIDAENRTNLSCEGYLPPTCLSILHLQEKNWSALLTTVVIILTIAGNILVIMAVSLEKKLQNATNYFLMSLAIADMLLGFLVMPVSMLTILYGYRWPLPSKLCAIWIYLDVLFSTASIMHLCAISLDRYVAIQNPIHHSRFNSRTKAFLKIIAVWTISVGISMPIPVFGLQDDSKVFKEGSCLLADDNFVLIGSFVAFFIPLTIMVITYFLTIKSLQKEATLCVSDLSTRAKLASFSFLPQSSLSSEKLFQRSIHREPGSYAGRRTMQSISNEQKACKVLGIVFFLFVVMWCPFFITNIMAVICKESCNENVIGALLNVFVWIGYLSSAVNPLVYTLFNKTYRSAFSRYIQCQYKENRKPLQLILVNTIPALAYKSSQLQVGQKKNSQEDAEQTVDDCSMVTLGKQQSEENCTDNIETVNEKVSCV

[2] = target: T1, 5-hydroxytryptamine receptor 1A (Rattus norvegicus, UniProt P19327); experiment: Displacement of [3H]8-OH-DPAT from 5HT1A receptor in Sprague-Dawley rat brain cortex homogenate after 30 mins by liquid scintillation counting; assay type: tissue-based
T1 sequence (P19327 whole entry): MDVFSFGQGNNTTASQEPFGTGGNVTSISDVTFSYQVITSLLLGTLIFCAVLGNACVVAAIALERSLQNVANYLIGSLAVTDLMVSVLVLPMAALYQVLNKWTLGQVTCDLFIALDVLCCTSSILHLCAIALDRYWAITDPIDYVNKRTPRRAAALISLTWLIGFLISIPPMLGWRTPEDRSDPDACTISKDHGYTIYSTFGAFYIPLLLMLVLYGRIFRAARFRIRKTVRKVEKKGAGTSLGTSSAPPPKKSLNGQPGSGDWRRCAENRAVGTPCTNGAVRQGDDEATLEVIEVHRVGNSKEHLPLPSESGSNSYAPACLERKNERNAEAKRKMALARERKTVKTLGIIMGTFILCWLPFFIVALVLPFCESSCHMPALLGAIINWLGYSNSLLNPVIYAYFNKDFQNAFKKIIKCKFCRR

Mus musculus [3] = experiment: Toxicity in po dosed Kunming mouse assessed as induction of catalepsy; assay type: organism-based; conditions: in vivo
Mus musculus [4] = experiment: Antipsychotic activity in po dosed Kunming mouse assessed as reduction in MK801-induced hyperactivity compound administered 30 mins prior to MK801 challenge measured for 90 mins post challenge; assay type: functional
Mus musculus [5] = experiment: Antipsychotic activity in po dosed Kunming mouse assessed as reversal of apomorphine-induced cage climbing response compound administered 30 mins prior to apomorphine challenge measured for 30 mins post challenge; assay type: functional
[6] = Acute toxicity in po dosed Kunming mouse assessed as survival measured after 24 hrs; assay type: organism-based; conditions: in vivo
Histamine H1 receptor = Histamine H1 receptor (Cavia porcellus, UniProt P31389); experiment: Displacement of [3H]mepyramine from histamine H1 receptor in guinea pig cerebellum homogenate after 60 mins by liquid scintillation counting; assay type: tissue-based
Histamine H1 receptor, sequence (P31389 whole entry): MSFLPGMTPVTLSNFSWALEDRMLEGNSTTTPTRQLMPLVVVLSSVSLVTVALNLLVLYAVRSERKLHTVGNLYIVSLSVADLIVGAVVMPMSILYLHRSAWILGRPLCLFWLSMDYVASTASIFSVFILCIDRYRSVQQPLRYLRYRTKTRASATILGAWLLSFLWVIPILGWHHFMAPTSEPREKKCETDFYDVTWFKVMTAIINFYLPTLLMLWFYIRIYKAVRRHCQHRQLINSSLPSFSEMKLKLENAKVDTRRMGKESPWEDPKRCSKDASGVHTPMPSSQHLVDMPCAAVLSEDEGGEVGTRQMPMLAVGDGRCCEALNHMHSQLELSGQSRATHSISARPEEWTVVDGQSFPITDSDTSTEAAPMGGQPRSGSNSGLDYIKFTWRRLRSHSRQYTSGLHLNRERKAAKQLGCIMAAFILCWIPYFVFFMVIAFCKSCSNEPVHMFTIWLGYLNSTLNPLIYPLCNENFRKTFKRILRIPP

D(3) dopamine receptor = D(3) dopamine receptor (Rattus norvegicus, UniProt P19020); experiment: Displacement of [3H]7-OH-DPA from dopamine D3 receptor in Sprague-Dawley rat olfactory tubercle homogenate after 60 mins by liquid scintillation counting; assay type: tissue-based
D(3) dopamine receptor, sequence (P19020 whole entry): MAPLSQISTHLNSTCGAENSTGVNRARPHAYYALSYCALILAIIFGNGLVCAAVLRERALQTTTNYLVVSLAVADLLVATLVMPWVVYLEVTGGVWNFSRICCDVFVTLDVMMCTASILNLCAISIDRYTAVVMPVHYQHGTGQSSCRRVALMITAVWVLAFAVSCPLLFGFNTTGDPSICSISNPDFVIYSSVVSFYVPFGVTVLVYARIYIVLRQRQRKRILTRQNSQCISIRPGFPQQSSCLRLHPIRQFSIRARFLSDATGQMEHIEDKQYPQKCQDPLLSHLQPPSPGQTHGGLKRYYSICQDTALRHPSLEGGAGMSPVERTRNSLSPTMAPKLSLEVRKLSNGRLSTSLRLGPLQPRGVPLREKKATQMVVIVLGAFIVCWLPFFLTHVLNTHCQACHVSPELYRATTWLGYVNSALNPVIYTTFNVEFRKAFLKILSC

in vivo [7] = conditions: Kunming, mouse, po
Description: Therapeutic index, ratio of ED50 for induction of catalepsy to ED50 for antipsychotic activity in po dosed Kunming mouse assessed as reduction in MK801-induced hyperactivity

in vivo [8] = conditions: Kunming, mouse, po; remark: listed apart in the source
Description: Therapeutic index, ratio of ED50 for induction of catalepsy to ED50 for antipsychotic activity in po dosed Kunming mouse assessed as reversal of apomorphine-induced cage climbing response

D(2) dopamine receptor, sequence (P61169 whole entry): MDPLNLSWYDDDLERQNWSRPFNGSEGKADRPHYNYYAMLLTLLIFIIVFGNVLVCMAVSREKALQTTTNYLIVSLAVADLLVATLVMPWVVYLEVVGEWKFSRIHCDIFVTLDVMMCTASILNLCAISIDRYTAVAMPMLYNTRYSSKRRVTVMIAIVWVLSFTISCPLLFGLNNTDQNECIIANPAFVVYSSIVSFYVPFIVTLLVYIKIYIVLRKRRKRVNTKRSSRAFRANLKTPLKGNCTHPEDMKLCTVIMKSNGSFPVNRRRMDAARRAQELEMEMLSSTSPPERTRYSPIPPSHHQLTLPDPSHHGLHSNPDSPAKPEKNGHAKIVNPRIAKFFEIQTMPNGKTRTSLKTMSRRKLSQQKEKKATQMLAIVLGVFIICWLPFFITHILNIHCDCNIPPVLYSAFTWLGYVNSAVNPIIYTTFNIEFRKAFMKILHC

Row | Compound | Ki (D(2) dopamine receptor) [nM] | Ki [1] [nM] | Ki [2] [nM] | also measured
1 | COc1ccccc1N1CCN(CCCOc2ccc3c4c(c(=O)oc3c2)CCC4)CC1 | > 10000 | 618 | 640 | –
2 | Cc1c(OCCCCN2CCC(c3noc4cc(F)ccc34)CC2)ccc2c3c(c(=O)oc12)CCC3 | 12.7 | 2.2 | 7.8 | ED50 (Mus musculus [3]): 66.47 mg/kg; Activity (Mus musculus [4]): Dose-dependent effect; ED50 (Mus musculus [4]): 0.31 mg/kg; Activity (Mus musculus [5]): Dose-dependent effect; ED50 (Mus musculus [5]): 0.61 mg/kg; LD50 at 24 h [6]: > 2000 mg/kg; Ki (Histamine H1 receptor): 1830 nM; Ki (D(3) dopamine receptor): 13.6 nM; selectivity ratio (in vivo [7]): 214; selectivity ratio (in vivo [8]): 109
3 | O=c1oc2cc(OCCCCN3CCN(c4nsc5ccccc45)CC3)ccc2c2c1CCC2 | – | 653 | 969 | –
4 | O=c1oc2cc(OCCCCN3CCC(c4noc5cc(F)ccc45)CC3)c(Cl)cc2c2c1CCC2 | 146 | 249 | 140 | –
5 | CN1CCN(C2=Nc3cc(Cl)ccc3Nc3ccccc32)CC1 [CLOZAPINE] | – | – | – | ED50 (Mus musculus [3]): 46.14 mg/kg; ED50 (Mus musculus [4]): 2.25 mg/kg; ED50 (Mus musculus [5]): 3.97 mg/kg
6 | O=c1oc2cc(OCCCCN3CCN(c4ccccn4)CC3)ccc2c2c1CCC2 | > 10000 | 1400 | 1260 | –
7 | O=c1oc2cc(OCCCCCN3CCC(c4noc5cc(F)ccc45)CC3)ccc2c2c1CCC2 | 698 | 426 | 1050 | –
8 | O=c1oc2cc(OCCCN3CCC(c4noc5cc(F)ccc45)CC3)ccc2c2ccccc12 | > 10000 | > 10000 | > 10000 | –
9 | COc1ccccc1N1CCN(CCCCOc2ccc3c4c(c(=O)oc3c2C)CCC4)CC1 | 570 | 175 | 349 | –
10 | O=C(CCCN1CCC(O)(c2ccc(Cl)cc2)CC1)c1ccc(F)cc1 [HALOPERIDOL] | – | – | – | ED50 (Mus musculus [3]): 0.38 mg/kg; ED50 (Mus musculus [4]): 0.16 mg/kg; ED50 (Mus musculus [5]): 0.14 mg/kg; selectivity ratio (in vivo [7]): 2.38; selectivity ratio (in vivo [8]): 2.71
11 | O=c1oc2cc(OCCCCN3CCC(c4nc5ccccc5s4)CC3)ccc2c2c1CCC2 | > 10000 | 1870 | 1600 | –
12 | Cc1nc2n(c(=O)c1CCN1CCC(c3noc4cc(F)ccc34)CC1)CCCC2 [RISPERIDONE] | – | – | – | ED50 (Mus musculus [3]): 0.43 mg/kg; ED50 (Mus musculus [4]): 0.017 mg/kg; ED50 (Mus musculus [5]): 0.02 mg/kg
13 | COc1ccc(N2CCN(CCCCOc3ccc4c5c(c(=O)oc4c3)CCC5)CC2)cc1 | > 10000 | > 10000 | 1240 | –
14 | O=c1oc2cc(OCCCN3CCC(c4noc5cc(F)ccc45)CC3)ccc2c2c1CCC2 | > 10000 | 188 | > 10000 | –
15 | COc1ccccc1N1CCN(CCCCOc2ccc3c4c(c(=O)oc3c2)CCCC4)CC1 | 757 | 1030 | 1120 | –
16 | COc1cccc(N2CCN(CCCCOc3ccc4c5c(c(=O)oc4c3)CCC5)CC2)c1 | 1060 | 895 | 22.4 | –
17 | O=c1oc2cc(OCCCCN3CCC(c4noc5cc(F)ccc45)CC3)ccc2c2ccccc12 | > 10000 | > 10000 | > 10000 | –

Further lines, with some results ahead:

Row | Ki (D(2) dopamine receptor) [nM] | Ki [1] [nM] | Ki [2] [nM] | Compound | also measured
18 | > 10000 | 16.5 | 28.9 | O=c1oc2cc(OCCCCN3CCN(c4ccc(F)cc4)CC3)ccc2c2c1CCC2 | –
19 | 159 | 105 | 157 | COc1ccccc1N1CCN(CCCCOc2ccc3c4c(c(=O)oc3c2Cl)CCC4)CC1 | –
20 | 1600 | 11.7 | 22.1 | Cc1cccc(N2CCN(CCCCOc3ccc4c5c(c(=O)oc4c3)CCC5)CC2)c1C | –
21 | 624 | 126 | > 10000 | O=c1oc2cc(OCCCCN3CCC(c4noc5cc(F)ccc45)CC3)ccc2c2c1CCCC2 | –
22 | > 10000 | 59.2 | 56 | O=c1oc2cc(OCCCCN3CCN(c4ccccc4)CC3)ccc2c2c1CCC2 | –
23 | > 10000 | 174 | 19.3 | O=c1oc2cc(OCCCCN3CCN(c4cccc(C(F)(F)F)c4)CC3)ccc2c2c1CCC2 | –
24 | 24.4 | 13.1 | 47.5 | O=c1oc2cc(OCCCCN3CCC(c4noc5cc(F)ccc45)CC3)ccc2c2c1CCC2 | Ki (Histamine H1 receptor): 21.3 nM; Ki (D(3) dopamine receptor): 110 nM
25 | 1900 | 79.3 | 68 | O=c1oc2cc(OCCCCN3CCN(c4cccc(Cl)c4Cl)CC3)ccc2c2c1CCC2 | –
26 | 5.6 | 3.9 | 0.2 | COc1ccccc1N1CCN(CCCCOc2ccc3c4c(c(=O)oc3c2)CCC4)CC1 | Ki (Histamine H1 receptor): 699 nM; Ki (D(3) dopamine receptor): 178 nM
27 | 1890 | 16.2 | 26.8 | O=c1oc2cc(OCCCCN3CCC(c4nc5ccccc5o4)CC3)ccc2c2c1CCC2 | –
28 | > 10000 | 36.6 | 84.8 | COc1ccccc1N1CCN(CCCCOc2cc3oc(=O)c4c(c3cc2Cl)CCC4)CC1 | –
29 | 18.9 | 5.3 | 11.4 | O=c1oc2c(Cl)c(OCCCCN3CCC(c4noc5cc(F)ccc45)CC3)ccc2c2c1CCC2 | Ki (Histamine H1 receptor): 13.6 nM; Ki (D(3) dopamine receptor): 13.9 nM
